pIC50, pKi: −log10 of the molar value.
What was measured:
Adenosine receptor A3 = biological target: T1, Adenosine receptor A3 (Rattus norvegicus, UniProt P28647); assay: Inhibitory activity against Adenosine A3 receptor by inhibiting specific [3H](R)-PIA binding to rat testis membranes; set-up: species or system Membrane
T1 sequence (P28647 whole entry): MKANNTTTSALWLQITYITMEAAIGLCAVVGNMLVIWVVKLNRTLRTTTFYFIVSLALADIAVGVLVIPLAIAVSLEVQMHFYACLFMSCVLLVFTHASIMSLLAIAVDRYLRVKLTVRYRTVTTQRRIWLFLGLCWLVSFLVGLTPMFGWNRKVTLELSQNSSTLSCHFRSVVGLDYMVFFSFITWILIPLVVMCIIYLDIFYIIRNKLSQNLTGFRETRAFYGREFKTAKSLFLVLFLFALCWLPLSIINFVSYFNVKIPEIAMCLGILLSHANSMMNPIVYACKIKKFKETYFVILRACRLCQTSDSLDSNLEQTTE

[1] = Inhibitory selectivity at Adenosine A3 receptor compared to Adenosine 2A receptor.
Adenosine receptor A2a = Adenosine receptor A2a (Homo sapiens, UniProt P29274)
Description: Inhibitory activity at Adenosine A2A receptor by inhibition of [3H]-CGS- 21680 binding to bovine striatal membranes.

[2] = Inhibitory selectivity at Adenosine 2A receptor compared to Adenosine 1 receptor.
[3] = Inhibitory selectivity at Adenosine A3 receptor compared to Adenosine 1 receptor.
Adenosine receptor A1 = biological target: T2, Adenosine receptor A1 (Bos taurus, UniProt P28190)
T2 sequence (P28190 whole entry): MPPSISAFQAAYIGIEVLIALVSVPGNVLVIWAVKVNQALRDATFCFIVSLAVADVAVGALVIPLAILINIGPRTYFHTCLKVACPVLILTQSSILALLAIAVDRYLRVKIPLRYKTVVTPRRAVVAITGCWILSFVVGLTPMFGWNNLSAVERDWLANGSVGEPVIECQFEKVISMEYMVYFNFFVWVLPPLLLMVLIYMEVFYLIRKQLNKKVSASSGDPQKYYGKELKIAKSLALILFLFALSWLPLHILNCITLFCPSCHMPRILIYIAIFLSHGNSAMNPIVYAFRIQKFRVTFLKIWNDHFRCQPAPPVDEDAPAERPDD
Description: Inhibitory activity at Adenosine A1 receptor by inhibition of [3H]CHA binding to bovine brain cortical membranes.

[4] = biological target: T3, Adenosine receptor A3 (Rattus norvegicus) (UniProt P28647); assay: Inhibitory activity against Adenosine A3 receptor by inhibition of [3H](R)-PIA binding to rat testis membranes; format: cell membranes; details: Membrane, concentration not given here
T3 sequence (whole entry): T1 sequence (P28647 whole entry)

Rattus norvegicus [5] = species: Rattus norvegicus; assay: (§1) Inhibitory activity against Adenylyl cyclase in rat cortical membranes in the presence of 2''-IB-Ado at concentration 30 nM; format: functional
Rattus norvegicus [6] = species: Rattus norvegicus; assay: (§2) Inhibitory activity against Adenylyl cyclase in rat cortical membranes in the presence of 2''-Me-CCPA at concentration 30 nM; format: functional
Rattus norvegicus [7] = species: Rattus norvegicus; assay: as §2; format: functional; remark: listed apart in the source
Rattus norvegicus [8] = species: Rattus norvegicus; assay: Maximal % inhibition of adenylyl cyclase activity in rat cortical membranes at a concentration of 10 uM.; format: functional
Rattus norvegicus [9] = species: Rattus norvegicus; assay: as §1; format: functional; remark: listed apart in the source
Rattus norvegicus [10] = species: Rattus norvegicus; assay: (§3) Inhibitory activity against Adenylyl cyclase in rat cortical membranes in the presence of 2''-Me-CPA at concentration 50 nM; format: functional
Rattus norvegicus [11] = species: Rattus norvegicus; assay: as §3; format: functional; remark: listed apart in the source
Rattus norvegicus [12] = species: Rattus norvegicus; assay: The compound was tested for the concentration to inhibit 50% of Adenylyl cyclase activity in rat cortical membranes.; format: functional

Chain of Adenosine receptor A2a (P29274 whole entry): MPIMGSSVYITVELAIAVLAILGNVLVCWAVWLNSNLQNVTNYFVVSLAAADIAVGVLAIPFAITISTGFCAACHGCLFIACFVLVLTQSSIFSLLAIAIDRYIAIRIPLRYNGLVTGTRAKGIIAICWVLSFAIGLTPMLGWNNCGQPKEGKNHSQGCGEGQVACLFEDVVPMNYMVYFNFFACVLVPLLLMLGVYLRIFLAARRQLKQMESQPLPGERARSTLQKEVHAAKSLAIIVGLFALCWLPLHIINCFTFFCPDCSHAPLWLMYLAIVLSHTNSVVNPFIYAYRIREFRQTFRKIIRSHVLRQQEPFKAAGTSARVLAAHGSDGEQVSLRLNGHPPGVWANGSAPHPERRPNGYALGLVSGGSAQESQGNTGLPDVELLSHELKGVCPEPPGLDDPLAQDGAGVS

Row | Structure (SMILES) | pKi (Adenosine receptor A3) | pKi (Adenosine receptor A2a) | pKi (Adenosine receptor A1) | Max inhibition (Rattus norvegicus [8]) | pIC50 (Rattus norvegicus [12]) | further results
1 | C[C@@H](Cc1ccccc1)Nc1ncnc2c1ncn2[C@@H]1O[C@H](CO)[C@@H](O)[C@H]1O [(S)-PIA] | 6.62 |  |  |  |  | 
2 | CNC(=O)[C@H]1OC(n2cnc3c(NCc4cccc(I)c4)ncnc32)[C@](C)(O)[C@@H]1O (stereo partly drawn) | 6.49 | 5.81 | 6.60 |  |  | Selectivity [1]: 0.2; Selectivity [2]: 6; Selectivity [3]: 1.2
3 | C[C@H](Cc1ccccc1)Nc1ncnc2c1ncn2[C@@H]1O[C@H](CO)[C@@H](O)[C@H]1O [(R)-PIA] | 7.28 |  |  |  |  | 
4 | OC[C@H]1O[C@@H](n2cnc3c(NC4CCCC4)nc(Cl)nc32)[C@H](O)[C@@H]1O |  | 6.24 | 9.46 |  |  | 
5 | C[C@@]1(O)[C@@H](CO)O[C@@H](n2cnc3c(N)ncnc32)[C@@H]1O |  |  | 4.31 |  |  | inhibition [4]: 8%
6 | OC[C@H]1O[C@@H](n2cnc3c(NC4CCCCC4)ncnc32)[C@H](O)[C@@H]1O |  |  |  | 16.2% | 8.85 | Max inhibition (Rattus norvegicus [5]): 16%; Max inhibition (Rattus norvegicus [6]): 16.1%; pIC50 (Rattus norvegicus [7]): 8.80; pIC50 (Rattus norvegicus [9]): 8.82; Max inhibition (Rattus norvegicus [10]): 16.2%; pIC50 (Rattus norvegicus [11]): 8.85
7 | OC[C@H]1O[C@@H](n2cnc3c(NCc4cccc(I)c4)ncnc32)[C@H](O)[C@@H]1O |  |  | 7.73 |  |  | 
8 | C[C@@]1(O)[C@H](O)[C@@H](CO)O[C@H]1n1cnc2c(NCc3cccc(I)c3)ncnc21 |  |  | 7.70 | 10.9% | 8.80 | 
9 | CCNC(=O)[C@H]1O[C@@H](n2cnc3c(N)ncnc32)[C@](C)(O)[C@@H]1O | 6.26 | 6.66 | 6.85 |  |  | Selectivity [1]: 2.5; Selectivity [2]: 1.5; Selectivity [3]: 3.8
10 | C[C@H](Cc1ccccc1)Nc1ncnc2c1ncn2[C@@H]1O[C@H](CO)[C@@H](O)[C@@]1(C)O | 5.97 | 5.13 | 8.33 | 13.7% | 8.80 | 
11 | Nc1nc(Cl)nc2c1ncn2[C@@H]1O[C@H](CO)[C@@H](O)[C@H]1O | 5.49 | 6.92 | 7.69 |  |  | Selectivity [1]: 26.6; Selectivity [2]: 5.9; Selectivity [3]: 158
12 | C[C@@]1(O)[C@H](O)[C@@H](CO)O[C@H]1n1cnc2c(NC3CCCC3)nc(Cl)nc21 | 5.30 |  | 8.74 | 15.1% | 7.88 | 
13 | CNC(=O)[C@H]1O[C@@H](n2cnc3c(NCc4cccc(I)c4)ncnc32)[C@H](O)[C@@H]1O [IB-MECA] |  |  | 7.48 |  |  | 
14 | C[C@@]1(O)[C@H](O)[C@@H](CO)O[C@H]1n1cnc2c(N)ncnc21 |  |  |  |  |  | inhibition [4]: 0%
15 | C[C@@]1(O)[C@H](O)[C@@H](CO)O[C@H]1n1cnc2c(NC3CCCC3)ncnc21 | 6.68 |  | 8.02 | 11% | 8.64 | 
16 | OC[C@H]1O[C@@H](n2cnc3c(NC4CCCC4)ncnc32)[C@H](O)[C@@H]1O [N6-CYCLOPENTYLADENOSINE] |  | 6.41 |  | 15.5% | 7.94 | 
17 | C[C@]1(O)C(n2cnc3c(N)nc(Cl)nc32)O[C@H](CO)[C@H]1O (stereo partly drawn) |  |  | 6.27 |  |  | inhibition [4]: 10%
18 | C[C@@H](Cc1ccccc1)Nc1ncnc2c1ncn2C1O[C@H](CO)[C@@H](O)[C@@]1(C)O (stereo partly drawn) | 5.00 |  | 7.30 |  |  | 
